The text below walks through data of PubChem BioAssay AID1259407 (Chemical Carcinogenesis Research Information System (CCRIS), 2018).

The source made the active and inactive calls. How the calls were made is not given here.

This series deals with CCRIS mutagenicity, Ames/micronucleus/aberration tests. The series is described as follows: CCRIS mutagenicity studies.
Where [1] appears, read: Test System: AMES SALMONELLA TYPHIMURIUM, Strain/Indicator: TA98, Metabolic Activation: NONE, Method: STANDARD PLATE.
Setting [2] is: Test System: AMES SALMONELLA TYPHIMURIUM, Strain/Indicator: TA100, Metabolic Activation: NONE, Method: STANDARD PLATE.
Where [3] appears, read: Test System: MOUSE LYMPHOMA, Strain/Indicator: L5178Y (TK+/TK-), Metabolic Activation: NONE, Method: SUSPENSION/PLATE.
Where [4] appears, read: Test System: MOUSE LYMPHOMA, Strain/Indicator: L5178Y (TK+/TK-), Metabolic Activation: RAT, LIVER, S-9, AROCLOR 1254, Method: SUSPENSION/PLATE.

For `Nc1ncc([N+](=O)[O-])s1`, the mutagenic call runs as follows: (Test System: AMES SALMONELLA TYPHIMURIUM, Strain/Indicator: TA98, Metabolic Activation: HAMSTER, LIVER, S-9, AROCLOR 1254, Method: STANDARD PLATE) “inactive; negative”; (Test System: AMES SALMONELLA TYPHIMURIUM, Strain/Indicator: TA98, Metabolic Activation: HAMSTER, LIVER, S-9, Method: STANDARD PLATE) “inactive; negative”; (Test System: AMES SALMONELLA TYPHIMURIUM, Strain/Indicator: TA98, Metabolic Activation: MOUSE, LIVER, S-9, AROCLOR 1254, Method: STANDARD PLATE) “inactive; negative”; (Test System: AMES SALMONELLA TYPHIMURIUM, Strain/Indicator: TA98, Metabolic Activation: MOUSE, LIVER, S-9, Method: STANDARD PLATE) “inactive; negative”; under setting [1], “inactive; negative”; (Test System: AMES SALMONELLA TYPHIMURIUM, Strain/Indicator: TA98, Metabolic Activation: RAT, LIVER, S-9, AROCLOR 1254, Method: STANDARD PLATE) “inactive; negative”. The mutagenic call by setting is: (Test System: AMES SALMONELLA TYPHIMURIUM, Strain/Indicator: TA98, Metabolic Activation: RAT, LIVER, S-9, Method: STANDARD PLATE) “inactive; negative”; (Test System: AMES SALMONELLA TYPHIMURIUM, Strain/Indicator: TA100, Metabolic Activation: HAMSTER, LIVER, S-9, AROCLOR 1254, Method: STANDARD PLATE) “inactive; negative”; under setting [2], “inactive; negative”; (Test System: AMES SALMONELLA TYPHIMURIUM, Strain/Indicator: TA1535, Metabolic Activation: HAMSTER, LIVER, S-9, AROCLOR 1254, Method: STANDARD PLATE) “inactive; negative”; (Test System: AMES SALMONELLA TYPHIMURIUM, Strain/Indicator: TA1535, Metabolic Activation: HAMSTER, LIVER, S-9, Method: STANDARD PLATE) “inactive; negative”; (Test System: AMES SALMONELLA TYPHIMURIUM, Strain/Indicator: TA1535, Metabolic Activation: MOUSE, LIVER, S-9, AROCLOR 1254, Method: STANDARD PLATE) “inactive; negative”. The mutagenic call runs as follows: (Test System: AMES SALMONELLA TYPHIMURIUM, Strain/Indicator: TA1535, Metabolic Activation: MOUSE, LIVER, S-9, Method: STANDARD PLATE) “inactive; negative”; (Test System: AMES SALMONELLA TYPHIMURIUM, Strain/Indicator: TA1535, Metabolic Activation: NONE, Method: STANDARD PLATE) “inactive; negative”; (Test System: AMES SALMONELLA TYPHIMURIUM, Strain/Indicator: TA1535, Metabolic Activation: RAT, LIVER, S-9, AROCLOR 1254, Method: STANDARD PLATE) “inactive; negative”; (Test System: AMES SALMONELLA TYPHIMURIUM, Strain/Indicator: TA1535, Metabolic Activation: RAT, LIVER, S-9, Method: STANDARD PLATE) “inactive; negative”; (Test System: AMES SALMONELLA TYPHIMURIUM, Strain/Indicator: TA1537, Metabolic Activation: HAMSTER, LIVER, S-9, AROCLOR 1254, Method: STANDARD PLATE) “inactive; negative”; (Test System: AMES SALMONELLA TYPHIMURIUM, Strain/Indicator: TA1537, Metabolic Activation: HAMSTER, LIVER, S-9, Method: STANDARD PLATE) “inactive; negative”. Moreover, the mutagenic call was “inactive; negative” (Test System: AMES SALMONELLA TYPHIMURIUM, Strain/Indicator: TA1537, Metabolic Activation: MOUSE, LIVER, S-9, AROCLOR 1254, Method: STANDARD PLATE); “inactive; negative” (Test System: AMES SALMONELLA TYPHIMURIUM, Strain/Indicator: TA1537, Metabolic Activation: MOUSE, LIVER, S-9, Method: STANDARD PLATE); “inactive; negative” (Test System: AMES SALMONELLA TYPHIMURIUM, Strain/Indicator: TA1537, Metabolic Activation: NONE, Method: STANDARD PLATE); “inactive; negative” (Test System: AMES SALMONELLA TYPHIMURIUM, Strain/Indicator: TA1537, Metabolic Activation: RAT, LIVER, S-9, AROCLOR 1254, Method: STANDARD PLATE); “inactive; negative” (Test System: AMES SALMONELLA TYPHIMURIUM, Strain/Indicator: TA1537, Metabolic Activation: RAT, LIVER, S-9, Method: STANDARD PLATE); “inactive; negative” (Test System: AMES SALMONELLA TYPHIMURIUM, Strain/Indicator: TA1538, Metabolic Activation: HAMSTER, LIVER, S-9, AROCLOR 1254, Method: STANDARD PLATE). Further, the mutagenic call runs as follows: (Test System: AMES SALMONELLA TYPHIMURIUM, Strain/Indicator: TA1538, Metabolic Activation: HAMSTER, LIVER, S-9, Method: STANDARD PLATE) “inactive; negative”; (Test System: AMES SALMONELLA TYPHIMURIUM, Strain/Indicator: TA1538, Metabolic Activation: MOUSE, LIVER, S-9, AROCLOR 1254, Method: STANDARD PLATE) “inactive; negative”; (Test System: AMES SALMONELLA TYPHIMURIUM, Strain/Indicator: TA1538, Metabolic Activation: MOUSE, LIVER, S-9, Method: STANDARD PLATE) “inactive; negative”; (Test System: AMES SALMONELLA TYPHIMURIUM, Strain/Indicator: TA1538, Metabolic Activation: NONE, Method: STANDARD PLATE) “inactive; negative”; (Test System: AMES SALMONELLA TYPHIMURIUM, Strain/Indicator: TA1538, Metabolic Activation: RAT, LIVER, S-9, AROCLOR 1254, Method: STANDARD PLATE) “inactive; negative”; (Test System: AMES SALMONELLA TYPHIMURIUM, Strain/Indicator: TA1538, Metabolic Activation: RAT, LIVER, S-9, Method: STANDARD PLATE) “inactive; negative”. For the same compound, the mutagenic call runs as follows: (Test System: E. COLI, Strain/Indicator: WP2 UVRA, Metabolic Activation: HAMSTER, LIVER, S-9, AROCLOR 1254, Method: STANDARD PLATE) “inactive; negative”; (Test System: E. COLI, Strain/Indicator: WP2 UVRA, Metabolic Activation: HAMSTER, LIVER, S-9, Method: STANDARD PLATE) “inactive; negative”; (Test System: E. COLI, Strain/Indicator: WP2 UVRA, Metabolic Activation: MOUSE, LIVER, S-9, AROCLOR 1254, Method: STANDARD PLATE) “inactive; negative”; (Test System: E. COLI, Strain/Indicator: WP2 UVRA, Metabolic Activation: MOUSE, LIVER, S-9, Method: STANDARD PLATE) “inactive; negative”; (Test System: E. COLI, Strain/Indicator: WP2 UVRA, Metabolic Activation: NONE, Method: STANDARD PLATE) “inactive; negative”; (Test System: E. COLI, Strain/Indicator: WP2 UVRA, Metabolic Activation: RAT, LIVER, S-9, AROCLOR 1254, Method: STANDARD PLATE) “inactive; negative”. The mutagenic call was “inactive; negative” (Test System: E. COLI, Strain/Indicator: WP2 UVRA, Metabolic Activation: RAT, LIVER, S-9, Method: STANDARD PLATE); “active; positive” under setting [3]; “active; positive” under setting [4].
As for `CO[C@]1(CC[C@@H](C)CO[C@@H]2O[C@H](CO)[C@@H](O)[C@H](O)[C@H]2O)O[C@H]2C[C@H]3[C@@H]4CC=C5C[C@@H](O[C@@H]6O[C@H](CO)[C@@H](O[C@@H]7O[C@@H](C)[C@H](O)[C@@H](O)[C@H]7O)[C@H](O)C6O[C@@H]6O[C@@H](C)[C@H](O)[C@@H](O)[C@H]6O)CC[C@]5(C)[C@H]4CC[C@]3(C)[C@H]2[C@@H]1C` (stereo partly specified), the mutagenic call runs as follows: under setting [1], “inactive; negative”; (Test System: AMES SALMONELLA TYPHIMURIUM, Strain/Indicator: TA98, Metabolic Activation: RAT, LIVER, S-9, PHENOBARBITAL, Method: STANDARD PLATE) “inactive; negative”; under setting [2], “inactive; negative”; (Test System: AMES SALMONELLA TYPHIMURIUM, Strain/Indicator: TA100, Metabolic Activation: RAT, LIVER, S-9, PHENOBARBITAL, Method: STANDARD PLATE) “inactive; negative”.
For `CC(=O)OCCO`, the mutagenic call is “inactive; negative” under setting [1]; “inactive; negative” (Test System: AMES SALMONELLA TYPHIMURIUM, Strain/Indicator: TA98, Metabolic Activation: RAT, LIVER, MICROSOMES, Method: STANDARD PLATE); “inactive; negative” under setting [2]; “inactive; negative” (Test System: AMES SALMONELLA TYPHIMURIUM, Strain/Indicator: TA100, Metabolic Activation: RAT, LIVER, MICROSOMES, Method: STANDARD PLATE).
In the case of `OC[C@H]1O[C@@](CO)(O[C@H]2O[C@H](CO)[C@@H](O)[C@H](O)[C@H]2O)[C@@H](O)[C@@H]1O`, the mutagenic call is “active; positive (structural changes); osmolality of solution decisive factor” (End Point: IN VITRO CHROMOSOMAL ABERRATIONS, Test System: CHO-WBL CELLS, Metabolic Activation: NONE); “inactive; negative” under setting [3]; “inactive; negative” under setting [4]; “inactive; negative” (Test System: MOUSE LYMPHOMA, Strain/Indicator: L5178Y (TK+/TK-), Metabolic Activation: RAT, LIVER, S-9, Method: SUSPENSION/PLATE).
